This experiment concerns the target DPP4 (Homo sapiens, UniProt P27487). Briefly: DPP4 activity assay (DPP4 inhibitor screening assay kit, Cayman).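 For all read-outs here: fluorescence read at excitation 360 nm and emission 460 nm after the enzyme reaction ran 30 min at 37 °C in a 96-well plate.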 The conditions noted are these: control mean 100.0; for remaining activity at 10 µM: 0.5 h. It counts as biochemical. The arrangement: purchased Cayman Chemical, Ann Arbor, MI, USA.
Setting [1] is: 10 µM, Figure 1A raw data, read-out: DPP4 activity in library screen, Exp 1.
The mark [2] stands for this setting: 10 µM, Figure 1A raw data, read-out: DPP4 activity in library screen, Exp 2.
Setting [3] is: 10 µM, Figure 1A raw data, read-out: DPP4 activity in library screen, Exp 3.
Setting [4] is: 10 µM, mean of Exp 1-3, read-out: DPP4 activity in library screen, Mean.

Like-named read-outs stand apart in the source and are kept apart here.

Chain of DPP4 (P27487 whole entry): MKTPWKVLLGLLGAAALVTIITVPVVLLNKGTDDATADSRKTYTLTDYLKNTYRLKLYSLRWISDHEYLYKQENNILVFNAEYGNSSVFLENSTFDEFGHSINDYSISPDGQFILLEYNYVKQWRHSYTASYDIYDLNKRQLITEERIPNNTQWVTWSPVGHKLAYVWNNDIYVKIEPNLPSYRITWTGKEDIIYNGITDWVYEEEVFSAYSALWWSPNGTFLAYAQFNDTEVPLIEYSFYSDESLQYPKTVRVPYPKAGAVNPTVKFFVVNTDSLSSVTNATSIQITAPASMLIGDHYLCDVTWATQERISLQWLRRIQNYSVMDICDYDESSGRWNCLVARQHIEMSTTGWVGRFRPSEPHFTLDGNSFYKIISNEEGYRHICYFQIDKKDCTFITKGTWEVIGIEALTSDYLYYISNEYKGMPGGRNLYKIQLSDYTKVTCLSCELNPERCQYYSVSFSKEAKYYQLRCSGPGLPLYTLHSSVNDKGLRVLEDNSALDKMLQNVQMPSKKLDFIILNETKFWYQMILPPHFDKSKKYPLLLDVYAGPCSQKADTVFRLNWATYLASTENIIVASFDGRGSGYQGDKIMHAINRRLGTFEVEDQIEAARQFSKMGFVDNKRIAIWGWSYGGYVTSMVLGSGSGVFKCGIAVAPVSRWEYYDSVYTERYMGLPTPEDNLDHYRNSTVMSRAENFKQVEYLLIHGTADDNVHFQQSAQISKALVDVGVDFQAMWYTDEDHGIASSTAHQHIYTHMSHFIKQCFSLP

Regarding `COc1cc2c(cc1OC)-c1cc3ccc(OC)c(OC)c3c[n+]1CC2` [Palmatine chloride], the remaining activity at 10 µM (read-out: DPP4 activity in library screen, Exp 1, 10 µM, Figure 1A raw data) amounted to 49.5%; the remaining activity at 10 µM (read-out: DPP4 activity in library screen, Exp 2, 10 µM, Figure 1A raw data) was found to be 48.9%; the remaining activity at 10 µM (read-out: DPP4 activity in library screen, Exp 3, 10 µM, Figure 1A raw data) came to 43.9%; the remaining activity at 10 µM (read-out: DPP4 activity in library screen, Mean, 10 µM, mean of Exp 1-3) was found to be 47.4%.

As to `O=c1ccc2cc(O[C@@H]3O[C@H](CO)[C@@H](O)[C@H](O)[C@H]3O)c(O)cc2o1` [Esculin], the “DPP4 activity in library screen, Mean” value (10 µM, mean of Exp 1-3) is “auto-fluorescence”.

For the compound `Cc1cc(=O)oc2cc(O)ccc12` [4-Methylumbelliferone (4-MU), 4-Methylumbelliferone], under “10 µM, mean of Exp 1-3”, the “DPP4 activity in library screen, Mean” value is listed as “auto-fluorescence”.

As to `O=c1cc(-c2ccccc2)oc2cc(O)cc(O)c12` [Chrysin], the remaining activity at 10 µM by setting is: under setting [1], 85.4%; under setting [2], 87.6%; under setting [3], 71.2%; under setting [4], 81.4%.

As to xenoclauxin, for the setting “10 µM, Figure 1A raw data”, the “DPP4 activity in library screen, Exp 1” value is reported as 105.6; the “DPP4 activity in library screen, Exp 2” value stood at 107.6; the “DPP4 activity in library screen, Exp 3” value amounted to 132.5. Moreover, the “DPP4 activity in library screen, Mean” value (10 µM, mean of Exp 1-3) worked out at 115.2.

Take `O=C1c2c(O)cc(O)cc2O[C@H](c2cc(O)c(O)c(O)c2)[C@H]1O` [Dihydromyricetin]: the remaining activity at 10 µM runs as follows: under setting [1], 101%; under setting [2], 88.8%; under setting [3], 72.1%; under setting [4], 87.3%.

In the case of `CCn1cc(C(=O)O)c(=O)c2ccc(C)nc21` [Nalidixic acid], the remaining activity at 10 µM under setting [1] worked out at 95.6%, the remaining activity at 10 µM under setting [2] was 94.7%, the remaining activity at 10 µM under setting [3] amounted to 93.5% and the remaining activity at 10 µM under setting [4] was 94.6%.

For the compound `C=C[C@H]1CN2CC[C@H]1C[C@H]2[C@H](O)c1ccnc2ccccc12` [Cinchonidine], the remaining activity at 10 µM came to 90.5% under setting [1], 97.4% under setting [2], 97.3% under setting [3] and 95.1% under setting [4].

Take `CC1(C)[C@@H](O[C@H]2O[C@H](C(=O)O)[C@@H](O)[C@H](O)[C@H]2O[C@@H]2O[C@H](C(=O)O)[C@@H](O)[C@H](O)[C@H]2O)CC[C@]2(C)[C@H]3C(=O)C=C4[C@@H]5C[C@@](C)(C(=O)O)CC[C@]5(C)CC[C@@]4(C)[C@]3(C)CC[C@@H]12` [Ammonium Glycyrrhizinate]: for the setting “10 µM, Figure 1A raw data”, the “DPP4 activity in library screen, Exp 1” value is 83.3; the “DPP4 activity in library screen, Exp 2” value amounted to 106.3; the “DPP4 activity in library screen, Exp 3” value was found to be 81.6. Further, under “10 µM, mean of Exp 1-3”, the “DPP4 activity in library screen, Mean” value is 90.4.

`CC1(C)CCC[C@]2(C)[C@H]3CC(=O)O[C@]3(C)CC[C@@H]12` [Sclareolide]: for the setting “10 µM, Figure 1A raw data”, the “DPP4 activity in library screen, Exp 1” value is listed as 95.1; the “DPP4 activity in library screen, Exp 2” value was determined as 80.7; the “DPP4 activity in library screen, Exp 3” value is 80.2. Also, the “DPP4 activity in library screen, Mean” value (10 µM, mean of Exp 1-3) is recorded as 85.3.

Take `CC1(C)[C@@H](O[C@H]2O[C@H](C(=O)O)[C@@H](O)[C@H](O)[C@H]2O[C@@H]2O[C@H](C(=O)O)[C@@H](O)[C@H](O)[C@H]2O)CC[C@]2(C)[C@H]3C(=O)C=C4[C@@H]5C[C@@](C)(C(=O)O)CC[C@]5(C)CC[C@@]4(C)[C@]3(C)CC[C@@H]12` [Glycyrrhizin (Glycyrrhizic Acid), Glycyrrhizin]: the remaining activity at 10 µM worked out at 137% under setting [1], 78.9% under setting [2], 65.2% under setting [3] and 93.8% under setting [4].

Take `C[C@@H]1O[C@@H](O[C@H]2[C@H](Oc3cc(O)c4c(c3)O[C@H](c3ccc(O)cc3)CC4=O)O[C@H](CO)[C@@H](O)[C@@H]2O)[C@H](O)[C@H](O)[C@H]1O` [Naringin]: the remaining activity at 10 µM was 116% under setting [1], 82.6% under setting [2], 68.6% under setting [3] and 89.2% under setting [4].

As for Myricitrin, under “10 µM, Figure 1A raw data”, the “DPP4 activity in library screen, Exp 1” value is given as 67; the “DPP4 activity in library screen, Exp 2” value is 70.2; the “DPP4 activity in library screen, Exp 3” value is 70.2. The “DPP4 activity in library screen, Mean” value (10 µM, mean of Exp 1-3) turned out to be 69.1.

Take `O=c1cc(-c2ccc(O)cc2)oc2cc(O)cc(O)c12` [Apigenin]: the remaining activity at 10 µM is, setting by setting: under setting [1], 97.4%; under setting [2], 70.3%; under setting [3], 67.8%; under setting [4], 78.5%.

Consider `OCc1ccccc1O[C@@H]1O[C@H](CO)[C@@H](O)[C@H](O)[C@H]1O` [Salicin], for which the remaining activity at 10 µM under setting [1] was determined as 72%, the remaining activity at 10 µM under setting [2] was found to be 94.5%, the remaining activity at 10 µM under setting [3] was found to be 87.9% and the remaining activity at 10 µM under setting [4] worked out at 84.8%.

For the compound `O=C(CCc1ccc(O)cc1)c1c(O)cc(O)cc1O` [Phloretin], the remaining activity at 10 µM was 78.9% under setting [1], 90.5% under setting [2], 55.2% under setting [3] and 74.9% under setting [4].

With `COc1ccc2cc3[n+](cc2c1OC)CCc1cc2c(cc1-3)OCO2.[Cl-]` [Berberine HCl], for the setting “10 µM, Figure 1A raw data”, the “DPP4 activity in library screen, Exp 1” value was 52.4; the “DPP4 activity in library screen, Exp 2” value worked out at 58.4; the “DPP4 activity in library screen, Exp 3” value is on record as 54.2. In addition, for the setting “10 µM, mean of Exp 1-3”, the “DPP4 activity in library screen, Mean” value amounted to 55.0.

With `C[N+](C)(C)CC(O)CC(=O)O.[Cl-]` (racemic) [DL-Carnitine HCl], where the note is “10 µM, Figure 1A raw data”, the “DPP4 activity in library screen, Exp 1” value is reported as 97.3; the “DPP4 activity in library screen, Exp 2” value amounted to 93.1; the “DPP4 activity in library screen, Exp 3” value is recorded as 99.1. The “DPP4 activity in library screen, Mean” value (10 µM, mean of Exp 1-3) worked out at 96.5.

As for `O=C(/C=C/c1ccc(O)c(O)c1)O[C@@H]1C[C@](O)(C(=O)O)C[C@@H](O)[C@H]1O` [Chlorogenic Acid], the remaining activity at 10 µM reads like this: under setting [1], 71.3%; under setting [2], 81.8%; under setting [3], 102%; under setting [4], 84.9%.

`C=C1C(=O)O[C@H]2[C@H]1CC/C(C)=C/CC[C@@]1(C)O[C@@H]21` [(-)-Parthenolide]: where the note is “10 µM, Figure 1A raw data”, the “DPP4 activity in library screen, Exp 1” value was 73.3; the “DPP4 activity in library screen, Exp 2” value stood at 84.6; the “DPP4 activity in library screen, Exp 3” value is 113.2. Further, the “DPP4 activity in library screen, Mean” value (10 µM, mean of Exp 1-3) amounted to 90.4.

Regarding `COc1ccc(CCC(=O)c2c(O)cc(O[C@@H]3O[C@H](CO)[C@@H](O)[C@H](O)[C@H]3O[C@@H]3O[C@@H](C)[C@H](O)[C@@H](O)[C@H]3O)cc2O)cc1O` [Neohesperidin dihydrochalcone (Nhdc), Neohesperidin dihydrochalcone], the remaining activity at 10 µM reads like this: under setting [1], 90.3%; under setting [2], 78%; under setting [3], 91.2%; under setting [4], 86.5%.

`COc1ccc(CC2NCCc3cc(OC)c(OC)cc32)cc1OC.Cl` (stereo not drawn) [Tetrahydropapaverine HCl]: under “10 µM, Figure 1A raw data”, the “DPP4 activity in library screen, Exp 1” value stood at 92.5; the “DPP4 activity in library screen, Exp 2” value amounted to 78; the “DPP4 activity in library screen, Exp 3” value was 76.9. Further, the “DPP4 activity in library screen, Mean” value (10 µM, mean of Exp 1-3) is recorded as 82.5.

As to `O=C1CCC[C@@H]2[C@H]3CCC[N+]4([O-])CCC[C@@H](CN12)[C@@H]34` (stereo partly drawn) [Oxymatrine], the remaining activity at 10 µM by setting is: under setting [1], 106%; under setting [2], 103%; under setting [3], 83.7%; under setting [4], 97.6%.

For `COc1cc(C(C)=O)ccc1O` [Apocynin], the remaining activity at 10 µM under setting [1] amounted to 82.6%, the remaining activity at 10 µM under setting [2] was found to be 90.9%, the remaining activity at 10 µM under setting [3] came out at 116% and the remaining activity at 10 µM under setting [4] amounted to 96.6%.

As for `C[C@H](CCC(=O)O)[C@H]1CC[C@H]2[C@@H]3C[C@H](O)[C@@H]4C[C@H](O)CC[C@]4(C)[C@H]3CC[C@]12C` [Hyodeoxycholic acid (HDCA), Hyodeoxycholic acid], the remaining activity at 10 µM runs as follows: under setting [1], 96.6%; under setting [2], 94.7%; under setting [3], 96.2%; under setting [4], 95.8%.

Turning to `CN(C)Cc1c[nH]c2ccccc12` [Gramine], the remaining activity at 10 µM is, setting by setting: under setting [1], 97.6%; under setting [2], 97.4%; under setting [3], 88.2%; under setting [4], 94.4%.

Turning to `CC(C)(O)[C@H]1CC[C@@](C)([C@H]2[C@@H](O)C[C@@]3(C)[C@@H]4C[C@H](O[C@@H]5O[C@H](CO)[C@@H](O)[C@H](O)[C@H]5O)[C@H]5C(C)(C)[C@@H](O[C@@H]6OC[C@@H](O)[C@H](O)[C@H]6O)CC[C@@]56C[C@@]46CC[C@]23C)O1` [Astragaloside A], under “10 µM, Figure 1A raw data”, the “DPP4 activity in library screen, Exp 1” value was determined as 103.8; the “DPP4 activity in library screen, Exp 2” value turned out to be 108.8; the “DPP4 activity in library screen, Exp 3” value worked out at 101.9. Moreover, the “DPP4 activity in library screen, Mean” value (10 µM, mean of Exp 1-3) stood at 104.8.

For the compound `Cl.N=c1ccn2c(n1)O[C@H]1[C@H](O)[C@@H](CO)O[C@H]12` [Cyclocytidine HCl], for the setting “10 µM, Figure 1A raw data”, the “DPP4 activity in library screen, Exp 1” value came to 110.3; the “DPP4 activity in library screen, Exp 2” value worked out at 95; the “DPP4 activity in library screen, Exp 3” value was 97.8. Further, the “DPP4 activity in library screen, Mean” value (10 µM, mean of Exp 1-3) turned out to be 101.0.

Turning to `Cc1coc2c1C(=O)C(=O)c1c-2ccc2c1CCCC2(C)C` [Tanshinone IIA], the remaining activity at 10 µM reads like this: under setting [1], 50.8%; under setting [2], 56.6%; under setting [3], 69.7%; under setting [4], 59%.

For the compound `COc1ccc(C(C)=O)c(O)c1` [Paeonol], the remaining activity at 10 µM under setting [1] stood at 80.3%, the remaining activity at 10 µM under setting [2] was 92.8%, the remaining activity at 10 µM under setting [3] turned out to be 99.9% and the remaining activity at 10 µM under setting [4] was 91%.

The values are drawn from PMC5428354, “Screening of a natural compound library identifies emodin, a natural compound from Rheum palmatum Linn that inhibits DPP4” (PeerJ, 2017).
